Source: ChEMBL document CHEMBL5291721, “A preclinical secondary pharmacology resource illuminates target-adverse drug reaction associations of marketed drugs” (Nat Commun, 2023)

Key:
[1] = target: Beta-2 adrenergic receptor (Homo sapiens, UniProt P07550); assay type: functional, cell-based
Androgen receptor [2] = target: T1, Androgen receptor (Rattus norvegicus, UniProt P15207); assay type: functional
T1 sequence (P15207 whole entry): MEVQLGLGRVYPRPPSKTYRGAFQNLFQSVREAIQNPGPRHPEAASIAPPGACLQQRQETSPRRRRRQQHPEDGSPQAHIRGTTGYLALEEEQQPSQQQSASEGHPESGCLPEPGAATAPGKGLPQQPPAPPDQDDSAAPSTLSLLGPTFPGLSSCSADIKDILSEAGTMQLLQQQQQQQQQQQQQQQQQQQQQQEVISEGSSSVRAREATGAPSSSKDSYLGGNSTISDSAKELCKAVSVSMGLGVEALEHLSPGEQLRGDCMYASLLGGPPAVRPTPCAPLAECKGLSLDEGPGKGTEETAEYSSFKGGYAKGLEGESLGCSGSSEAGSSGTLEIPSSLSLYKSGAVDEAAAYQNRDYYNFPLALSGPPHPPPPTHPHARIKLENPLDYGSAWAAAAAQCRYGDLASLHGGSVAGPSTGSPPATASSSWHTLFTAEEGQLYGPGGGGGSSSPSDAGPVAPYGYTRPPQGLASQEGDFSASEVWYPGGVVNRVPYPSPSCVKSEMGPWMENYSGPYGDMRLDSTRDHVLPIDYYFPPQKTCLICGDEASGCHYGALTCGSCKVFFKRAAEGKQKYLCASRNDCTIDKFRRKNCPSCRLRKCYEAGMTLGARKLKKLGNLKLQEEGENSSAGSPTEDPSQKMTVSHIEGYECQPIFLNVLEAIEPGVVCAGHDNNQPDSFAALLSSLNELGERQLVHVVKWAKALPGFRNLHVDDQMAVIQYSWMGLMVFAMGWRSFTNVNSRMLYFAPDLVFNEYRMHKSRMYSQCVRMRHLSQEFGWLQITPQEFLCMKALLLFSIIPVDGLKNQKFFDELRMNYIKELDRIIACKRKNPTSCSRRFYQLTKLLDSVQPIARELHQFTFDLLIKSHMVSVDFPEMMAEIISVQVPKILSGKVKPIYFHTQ

Androgen receptor [3] = target: T1, Androgen receptor; assay type: functional; remark: listed apart in the source
[4] = target: T2, Alpha-1A adrenergic receptor (Homo sapiens, UniProt P35348)
T2 sequence (P35348 whole entry): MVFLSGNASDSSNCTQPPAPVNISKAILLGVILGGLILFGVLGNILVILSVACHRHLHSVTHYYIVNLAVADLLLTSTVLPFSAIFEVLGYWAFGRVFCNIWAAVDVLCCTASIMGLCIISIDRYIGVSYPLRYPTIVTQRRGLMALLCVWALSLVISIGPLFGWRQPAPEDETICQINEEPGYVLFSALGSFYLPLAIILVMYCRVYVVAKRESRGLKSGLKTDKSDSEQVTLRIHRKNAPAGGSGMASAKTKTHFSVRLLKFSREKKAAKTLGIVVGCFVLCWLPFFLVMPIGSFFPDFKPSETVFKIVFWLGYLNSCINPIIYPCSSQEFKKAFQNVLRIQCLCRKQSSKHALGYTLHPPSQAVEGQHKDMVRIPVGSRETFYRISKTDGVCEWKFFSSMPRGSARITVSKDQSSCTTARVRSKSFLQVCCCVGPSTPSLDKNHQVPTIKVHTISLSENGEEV

Mu-type opioid receptor = Mu-type opioid receptor (Homo sapiens, UniProt P35372)
[5] = target: Gamma-aminobutyric acid receptor subunit alpha-1/alpha-2/beta-2/gamma-2 (Homo sapiens, UniProt P14867+P18507+P47869+P47870); assay type: functional, cell-based
Also: assay procedure not described here.

Sequence of Gamma-aminobutyric acid receptor subunit alpha-1/alpha-2/beta-2/gamma-2 (P14867 whole entry): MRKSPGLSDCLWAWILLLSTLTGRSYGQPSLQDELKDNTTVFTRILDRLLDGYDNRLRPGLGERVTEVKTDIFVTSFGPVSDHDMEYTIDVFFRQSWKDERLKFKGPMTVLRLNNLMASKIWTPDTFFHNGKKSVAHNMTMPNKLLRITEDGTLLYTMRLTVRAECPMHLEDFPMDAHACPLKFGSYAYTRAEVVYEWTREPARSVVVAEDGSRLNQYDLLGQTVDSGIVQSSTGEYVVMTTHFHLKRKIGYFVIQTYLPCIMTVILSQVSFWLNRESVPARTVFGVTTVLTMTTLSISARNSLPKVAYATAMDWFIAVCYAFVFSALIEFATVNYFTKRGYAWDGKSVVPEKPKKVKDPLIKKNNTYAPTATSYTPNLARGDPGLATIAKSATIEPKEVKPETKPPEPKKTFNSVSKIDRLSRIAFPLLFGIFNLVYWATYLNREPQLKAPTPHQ
Sequence of Gamma-aminobutyric acid receptor subunit alpha-1/alpha-2/beta-2/gamma-2 (P47870 whole entry): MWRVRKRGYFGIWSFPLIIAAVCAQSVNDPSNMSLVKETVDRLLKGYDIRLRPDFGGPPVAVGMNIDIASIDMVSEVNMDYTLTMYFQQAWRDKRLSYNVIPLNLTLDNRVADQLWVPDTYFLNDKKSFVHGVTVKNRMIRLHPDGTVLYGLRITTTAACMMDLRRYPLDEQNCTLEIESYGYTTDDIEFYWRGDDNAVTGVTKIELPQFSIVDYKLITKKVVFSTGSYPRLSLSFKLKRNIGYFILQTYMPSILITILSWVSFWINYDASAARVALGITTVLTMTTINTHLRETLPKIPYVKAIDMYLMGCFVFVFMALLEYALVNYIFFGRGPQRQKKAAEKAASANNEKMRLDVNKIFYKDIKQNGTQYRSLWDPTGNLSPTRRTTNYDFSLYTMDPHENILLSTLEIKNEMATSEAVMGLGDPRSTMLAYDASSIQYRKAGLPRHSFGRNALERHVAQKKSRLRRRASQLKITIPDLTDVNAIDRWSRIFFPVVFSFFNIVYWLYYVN
Sequence of Gamma-aminobutyric acid receptor subunit alpha-1/alpha-2/beta-2/gamma-2 (P18507 whole entry): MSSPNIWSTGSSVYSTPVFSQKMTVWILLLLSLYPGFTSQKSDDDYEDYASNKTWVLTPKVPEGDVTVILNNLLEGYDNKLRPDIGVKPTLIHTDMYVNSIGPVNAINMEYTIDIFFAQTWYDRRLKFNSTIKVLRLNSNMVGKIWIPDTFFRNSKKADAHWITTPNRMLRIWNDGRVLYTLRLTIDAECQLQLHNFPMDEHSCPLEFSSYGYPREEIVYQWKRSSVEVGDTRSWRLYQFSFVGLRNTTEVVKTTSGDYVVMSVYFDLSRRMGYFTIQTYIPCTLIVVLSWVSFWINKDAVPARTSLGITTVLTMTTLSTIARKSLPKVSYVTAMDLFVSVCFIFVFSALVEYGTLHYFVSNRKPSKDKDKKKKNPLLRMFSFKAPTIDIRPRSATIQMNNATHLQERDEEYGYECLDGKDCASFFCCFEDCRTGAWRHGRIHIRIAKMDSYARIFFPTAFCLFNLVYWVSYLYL
Sequence of Gamma-aminobutyric acid receptor subunit alpha-1/alpha-2/beta-2/gamma-2 (P47869 whole entry): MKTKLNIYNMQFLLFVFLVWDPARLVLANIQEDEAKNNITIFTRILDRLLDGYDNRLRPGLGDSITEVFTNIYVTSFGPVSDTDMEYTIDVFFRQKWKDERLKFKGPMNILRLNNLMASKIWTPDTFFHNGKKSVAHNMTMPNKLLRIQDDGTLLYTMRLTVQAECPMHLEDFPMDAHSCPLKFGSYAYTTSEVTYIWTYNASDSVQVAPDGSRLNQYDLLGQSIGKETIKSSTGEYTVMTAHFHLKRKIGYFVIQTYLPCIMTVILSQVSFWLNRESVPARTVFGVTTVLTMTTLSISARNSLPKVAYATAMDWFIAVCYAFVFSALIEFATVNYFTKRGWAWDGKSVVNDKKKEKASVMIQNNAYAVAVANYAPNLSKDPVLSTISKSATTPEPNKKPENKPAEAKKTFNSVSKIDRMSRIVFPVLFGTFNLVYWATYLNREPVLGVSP
Sequence of Mu-type opioid receptor (P35372 whole entry): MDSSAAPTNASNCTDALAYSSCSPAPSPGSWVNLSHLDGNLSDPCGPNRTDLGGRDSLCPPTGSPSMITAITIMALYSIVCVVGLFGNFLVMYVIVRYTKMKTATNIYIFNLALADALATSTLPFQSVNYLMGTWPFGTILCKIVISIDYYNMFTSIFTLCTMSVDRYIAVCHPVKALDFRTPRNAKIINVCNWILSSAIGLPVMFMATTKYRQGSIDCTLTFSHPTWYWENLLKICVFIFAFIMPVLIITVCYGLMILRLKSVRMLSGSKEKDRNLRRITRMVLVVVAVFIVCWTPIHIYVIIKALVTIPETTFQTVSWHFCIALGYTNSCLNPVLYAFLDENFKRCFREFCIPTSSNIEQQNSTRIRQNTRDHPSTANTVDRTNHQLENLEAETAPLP
Sequence of Beta-2 adrenergic receptor (P07550 whole entry): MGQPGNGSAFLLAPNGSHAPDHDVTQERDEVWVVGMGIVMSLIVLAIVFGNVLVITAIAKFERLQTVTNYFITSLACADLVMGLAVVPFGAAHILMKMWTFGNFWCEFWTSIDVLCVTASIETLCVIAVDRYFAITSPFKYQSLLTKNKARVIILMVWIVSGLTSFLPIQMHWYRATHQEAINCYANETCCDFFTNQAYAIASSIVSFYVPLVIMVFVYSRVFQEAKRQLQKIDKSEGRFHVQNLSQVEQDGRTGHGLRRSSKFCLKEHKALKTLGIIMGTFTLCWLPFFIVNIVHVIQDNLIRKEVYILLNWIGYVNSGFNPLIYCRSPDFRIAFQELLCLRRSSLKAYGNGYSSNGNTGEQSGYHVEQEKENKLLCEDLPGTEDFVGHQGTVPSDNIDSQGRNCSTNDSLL

SMILES | AC50 [1] | AC50 (Androgen receptor [2]) | AC50 (Androgen receptor [3]) | AC50 [4] | AC50 (Mu-type opioid receptor) | AC50 [5]
N#Cc1ccccc1-c1cc(-c2ccccn2)cn(-c2ccccc2)c1=O | > 30 µM | > 30 µM | > 30 µM |  |  | 
COc1ccc(/C=C/C(=O)Nc2ccccc2C(=O)O)cc1OC |  | > 30 µM | > 30 µM | 18 µM | > 30 µM | 
C=C[C@@]1(C)CC(=O)[C@]2(O)[C@@]3(C)[C@@H](O)CCC(C)(C)[C@@H]3[C@H](OC(=O)CCN(C)C)[C@H](OC(C)=O)[C@@]2(C)O1 |  | > 30 µM | > 30 µM |  |  | 
Nc1ccc(C(=O)O)c(O)c1 [AMINOSALICYLIC ACID] | > 30 µM | > 30 µM | > 30 µM |  |  | 
O=C(CCCN1CCC(n2c(O)nc3ccccc32)CC1)c1ccc(F)cc1 [BENPERIDOL] | > 30 µM | 7.1 µM |  |  |  | > 30 µM
CCN(CC)C(=O)C1CN2CCc3cc(OC)c(OC)cc3C2CC1OC(C)=O (stereo unspecified) [BENZQUINAMIDE] | > 30 µM | > 30 µM | > 30 µM | > 10 µM | > 30 µM | > 30 µM
COc1cc(OC)c(C(=O)CCCN2CCCC2)c(OC)c1 [BUFLOMEDIL] |  | > 30 µM | > 30 µM |  |  | 
CCCCC1(CC)C(=O)NC(=O)NC1=O [BUTETHAL] | > 30 µM | > 30 µM | > 30 µM |  |  | > 30 µM
COCCOC(=O)C1=C(C)NC(C)=C(C(=O)OC/C=C/c2ccccc2)C1c1cccc([N+](=O)[O-])c1 (stereo unspecified) [CILNIDIPINE] | > 30 µM |  |  |  |  | > 30 µM
CC(C)(C)NCC(O)c1cc(Cl)c(N)c(Cl)c1 (stereo unspecified) [CLENBUTEROL] |  | > 30 µM | > 30 µM | 13 µM |  | 
CCC(C)(Oc1ccc(C2(c3ccc(OC(C)(CC)C(=O)O)cc3)CCCCC2)cc1)C(=O)O (stereo unspecified) [CLINOFIBRATE] |  | > 30 µM | > 30 µM |  |  | 
CCCCC[C@H](O)/C=C/[C@H]1[C@H](O)CC(=O)[C@@H]1C/C=C\CCCC(=O)O [DINOPROSTONE] |  | > 30 µM | 23 µM |  |  | 
COC(=O)N[C@@H](C)CNc1nccc(-c2cn(C(C)C)nc2-c2cc(Cl)cc(NS(C)(=O)=O)c2F)n1 [ENCORAFENIB] |  | > 30 µM | > 30 µM | > 30 µM |  | 
O=C(O)c1ccccc1OP(=O)(O)O [FOSFOSAL] | > 30 µM |  |  |  |  | > 30 µM
CCCCCCOC(=O)CCC(=O)CN [HEXAMINOLEVULINATE] | > 30 µM | > 30 µM | > 30 µM |  |  | 
CC1(C)C(/C=C/C=C/C=C/C=C2\N(CCCCS(=O)(=O)O)c3ccc4ccccc4c3C2(C)C)=[N+](CCCCS(=O)(=O)[O-])c2ccc3ccccc3c21 [INDOCYANINE GREEN ACID FORM] | > 30 µM | > 30 µM | 6.8 µM |  |  | 
Nc1nc2c(c(=O)[nH]1)N(C=O)C(CNc1ccc(C(=O)N[C@@H](CCC(=O)O)C(=O)O)cc1)CN2 (stereo partly specified) [LEUCOVORIN] | > 30 µM | > 30 µM | > 30 µM |  |  | 
CCCC[C@H](C)C[C@H](O)/C=C/[C@H]1[C@H](O)CC(=O)[C@@H]1CCCC/C=C/C(=O)O [LIMAPROST] | > 30 µM | > 30 µM |  |  |  | > 30 µM
Cc1ccc(NC(=O)C2(c3ccc4c(c3)OC(F)(F)O4)CC2)nc1-c1cccc(C(=O)O)c1 [LUMACAFTOR] | > 30 µM | > 30 µM |  |  |  | > 30 µM
CC(C)OC(=O)C(C(=O)OC(C)C)=C1SC=CS1 [MALOTILATE] |  | > 30 µM | > 30 µM |  |  | 
CCOC(=O)Nc1ccc2c(c1)N(C(=O)CCN1CCOCC1)c1ccccc1S2 [MORICIZINE] | > 30 µM | > 30 µM | > 30 µM |  |  | > 30 µM
Cc1ccc(=O)n(-c2ccccc2)c1 [PIRFENIDONE] | > 30 µM |  |  | > 10 µM | > 30 µM | > 30 µM
CCN(CC)CC(=O)Oc1ccc(NC(C)=O)cc1 [PROPACETAMOL] |  | > 30 µM | > 30 µM |  |  | 
Cc1ccc2c(-c3ccccc3)nc(=O)n(C(C)C)c2c1 [PROQUAZONE] | > 30 µM | 15 µM |  |  |  | > 30 µM
Cc1cc2nc3c(=O)[nH]c(=O)nc-3n(C[C@H](O)[C@H](O)[C@H](O)COP(=O)(O)O)c2cc1C [RIBOFLAVIN 5'-PHOSPHATE] | 2.9 µM | > 30 µM | > 3 µM |  |  | 
CN1CCN(c2c(F)cc3c(=O)c(C(=O)O)cn4c3c2SCC4)CC1 [RUFLOXACIN] | > 30 µM |  |  |  |  | > 30 µM
CN1c2ccccc2C(NCCCCCCC(=O)O)c2ccc(Cl)cc2S1(=O)=O (stereo unspecified) [TIANEPTINE] | > 30 µM |  |  |  | > 30 µM | > 30 µM
COc1cc2c(Nc3ccc(Br)cc3F)ncnc2cc1OCC1CCN(C)CC1 [VANDETANIB] | > 30 µM |  |  |  |  | > 30 µM
